The subject of assay [1] is CXCL10 production from monocytes. The assay can be described thus: CXCL10 production from interferon-stimulated monocytes, intracellular staining on flow cytometry. It is filed as cell-based, human. The procedure: (§1) Cells are plated at 3×10^5 cells/well for PBMC and isolated monocyte experiments, and 1×10^5 cell/well for isolated neutrophil experiments, in 96-well plates. Cells are cultured in complete RPMI (RPMI 1640, 10% FBS, 1×PSF). For cross-linking experiments 10 μg/mL anti-SLAMF7 mAb or SLAMF7-Fc is added to a sterile, high-binding 96-well cell culture plate O/N at 4° C. For all in vitro flow cytometry experiments, cells are cultured in the presence of stimuli for 17-18 h. In the monocyte maturation assay as shown in FIG. 18E the cells are stimulated with only 25 IU/mL IFNα for exactly 24 h. Small molecule inhibitors are added 45-60 min before IFNα for all relevant experiments. For experiments involving intracellular staining, BD GolgiPlug is added for the final 5 h. NK92 cells are purchased from ATCC and cultured as indicated by manufacturer.
(§2) Cells are prepared and stained as previously described. Intracellular staining is performed using the BD fixation/permeabilization kit (BD Biosciences) per manufacturer's instructions. Transcription factor staining is performed with the Transcription Factor Buffer Set (BD Pharmingen) per manufacturer's instructions. Samples are analyzed on either a BD LSR II or BD FACSCanto. LIVE/DEAD staining with Aqua fixable stain (ThermoFisher) is included during initial experiments and cell viability is verified to be greater than 90%.
Background: In flow cytometry, cells or beads pass a laser one at a time.

The test system of assay [2] is SLAMF7 expression on monocytes. The assay can be described thus: SLAMF7 expression on PBMCs and monocytes by flow cytometry. The class given is cell-based, human. How it is done:
as §1, §2

The next assay relates to isolated monocytes. Nature of the assay: qRT-PCR of chemokine and ISG mRNA in isolated monocytes. The class given is cell-based, human. As to conditions: IFNα and SLAMF7 cross-linking; SHP1/2 inhibitor 10 μM. The procedure:
Isolated monocytes are plated in 96-well plates at 3×10^5 cells/well and stimulated as indicated for 4 h. Cells are harvested and placed into Trizol (ThermoFisher) and RNA is isolated per manufacturer's instructions. RNA is reverse transcribed with SuperStrand First Strand Synthesis Kit III (Invitrogen) per manufacturer's instructions and analyzed on a QuantStudio7 system (ThermoFisher). GAPDH is used as a housekeeping gene and the ΔΔCt method is used for analysis.
In general terms: In qPCR the cycle at which signal appears reflects the starting amount.

In a further assay the target is T1, CXCL10 (Homo sapiens, UniProt P02778).
T1 sequence (P02778 22-98): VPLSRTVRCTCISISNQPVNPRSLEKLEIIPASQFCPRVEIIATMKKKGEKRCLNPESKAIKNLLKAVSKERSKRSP
Conditions: monoclonal antibodies to reduce CXCL10; cited from earlier work.

The test system of assay [3] is SLAMF7 expression on neutrophils. The assay can be described thus: SLAMF7 expression on neutrophils by flow cytometry. It is filed as cell-based, human. Conditions: presence and absence of IFNα stimulation. How it is done: as §1
Cells are prepared and stained as previously described. Intracellular staining is performed using the BD fixation/permeabilization kit (BD Biosciences) per manufacturer's instructions. […] Samples are analyzed on either a BD LSR II or BD FACSCanto. […]
(§3) CD14^+ monocytes are isolated from PBMCs via positive selection using CD14 Microbeads (Miltenyi Biotec) per manufacturer's instructions. Purity is consistently greater than 90% as assessed by flow cytometry. […] Purity is consistently greater than 98% as assessed by flow cytometry.

A further assay has as its system isolated neutrophils. The assay can be described thus: Cytokine/chemokine release from isolated neutrophils, BioPlex assay. It is filed as cell-based, human. The procedure:
as §1
For analysis of cell culture, supernatant and plasma samples 80 μL of media or plasma is used, undiluted, and the assay is run per manufacturer's instructions (Bio-Rad, Hercules, Calif.) via Luminex 100 technology. […]
as §3

Setting [4] is: SLAMF7-stimulated cells, IFNα, 100 nM.

With `CC(C)CCC[C@@H](C)[C@H]1CC[C@H]2[C@@H]3CCC4C[C@H](N)CC[C@]4(C)[C@H]3CC[C@]12C` (some centres unmarked) [3AC], the “recovery of CXCL10 expression” value in assay [1] (monocytes stimulated with IFNα and SLAMF7 cross-linking, pre-treatment 5 μM) was “does not result in recovery of CXCL10 expression”.
Turning to `CC(C)C[C@H](NC(=O)[C@H](Cc1ccccc1)NC(=O)c1cnccn1)B(O)O` [Bortezomib], in assay [1] (setting [4]), the CXCL10 production entry is recorded as “further decreases CXCL10 production” and the “recovery of CXCL10 expression” value is given as “does not result in recovery of CXCL10 expression”. Also, in assay [2] (with IFNα, 100 nM), the “SLAMF7 expression on monocytes” value is “acts synergistically with IFNα to upregulate SLAMF7 expression”.
Take `CC(C)(C)C(=O)Nc1ccc2c(c1)C(=O)C(=O)c1ccccc1-2` [CAS 345630-40-2]: the “rescue of CXCL10 production” value in assay [1] (IFNα and SLAMF7 cross-linking, pre-treatment 1 μM) is listed as “fails to rescue CXCL10 production”.
On to `O=C(/C=C/c1ccc(CN(CCO)CCc2c[nH]c3ccccc23)cc1)NO` [Dacinostat], for which, in assay [2] (classical monocytes, IFNα plus HDACi), the “IFNα-mediated SLAMF7 up-regulation” value is reported as “prevents IFNα-mediated SLAMF7 up-regulation”.
On to `O=S(=O)(O)c1ccc2cc(N=Nc3cc(S(=O)(=O)O)c4cccnc4c3O)ccc2c1` [NSC87877], for which the “recovery of CXCL10 expression” value in assay [1] (monocytes stimulated with IFNα and SLAMF7 cross-linking, pre-treatment 10 μM) was “does not result in recovery of CXCL10 expression”. In addition, the “involvement of SHP1/2 in alpha chemokine inhibition” value in the assay on isolated monocytes is “not involved in alpha chemokine inhibition”.
As for “BMS-936557: anti-CXCL10 monoclonal antibody (Brisol-Myers Squibb)”, in the assay with CXCL10, the anti-inflammatory activity entry is recorded as “limited anti-inflammatory activity”.
IFNα: the “SLAMF7 response of CD14+ monocytes” value in assay [2] (CD14+ monocytes, IFNα 100 IU/mL) is recorded as “most robust SLAMF7 response”. Also, the “percent of SLAMF7+ PBMCs” value in assay [2] (total PBMCs from HIV+ patients, IFNα 100 IU/mL) was “minor, but significant increase”. Moreover, the “SLAMF7 expression on neutrophils” value in assay [3] is “unable to upregulate SLAMF7”. Further, the “CXCL10 release from neutrophils” value with isolated neutrophils (IFNα by itself, neutrophils from HCs and HIV+ patients) is recorded as “can induce CXCL10 release”.
In the case of lipopolysaccharide [LPS], in the assay with isolated neutrophils (LPS added to IFNα), the “CXCL10 release from neutrophils” value was “enhanced”.

Values taken from patent publication US20190085334A1, “TREATMENT OF NEUROINFLAMMATION IN NEUROLOGICAL DISORDERS” (Board of Trustees of Michigan State University, priority 2017, published 2019).
